Measurements published in patent publication US20130190524A1, “CYCLITOLS AND THEIR DERIVATIVES AND THEIR THERAPEUTIC APPLICATIONS” (UNIVERSITE DE STRASBOURG, priority 2006, published 2013).

Tests used:
free hemoglobin (Hb) = target: T1, free hemoglobin (Hb) (Homo sapiens, UniProt P68871); assay: P50 (oxygen equilibrium curve, Hemox Analyzer) on free hemoglobin; format: biochemical; conditions: blood matrix Hb, free hemoglobin 100 μM, pH 7.4, 37° C.; for P50: effector 2 mM (effector/Hb ratio 20), n=3; for P50 increase: versus P50 control, effector 2 mM
T1 construct: the cells were hemolysed by addition of 2 volumes of cold distilled water; tissue EFS-Alsace; host or cells: red blood cell concentrate, hemolysed, stroma removed, passed over Sephadex G-25
Experimental: (§1) Some of the compounds described herein were tested for P50 on free hemoglobin (Hb) as well as human whole blood (WB) as 120 mM solutions. The hemoglobin solution was prepared from red blood cells concentrate (EFS-Alsace) by washing three times with 1 volume of saline (1500×g, 10 min), the cells were hemolysed by addition of 2 volumes of cold distilled water. After centrifugation (7000×g, 30 min) for stroma removal, 5 ml of the clear hemoglobin solution were placed on a 2.5 cm×30 cm column of Sephadex G-25 equilibrated with 0.1 M sodium chloride+10^−5 M EDTA. The protein was eluted with the same solution at a rate of about 20 ml/h [Benesch, R.; Benesch, R. E. and Yu, C. I. Reciprocal binding of oxygen and diphosphoglycerate by human hemoglobin. Proc. Natl. Acad. Sci. USA (1968) 59, 526-532].
The allosteric modulation of the effectors was measured by the change in p50, the partial pressure of oxygen for half-saturation. myo-Inositol hexaphosphate (myo-1HP) was purchased from Sigma. Oxygen equilibrium curves (OEC) were carried out with the Hemox Analyzer (TCS Scientific Co.) under the following conditions: pH 7.4, 135 mM NaCl, 5 mM KCl and 30 mM TES (N-[tris(hydroxymethyl)methyl]-2-aminoethanesulfonic acid) buffer at 37° C. The concentration of free hemoglobin was 100 μM (577 nm, ε=58.4 mM^−1 cm^−1 per tetramer) and the final concentration of the allosteric effector in the cuvette was 2 mM resulting in an effector/Hb ratio of 20.

human whole blood (WB) = assay: P50 (oxygen dissociation curve, Hemox Analyzer) on human whole blood; format: cell-based; conditions: blood matrix WB, 120 mM compound solution, 1:1 with whole blood; for P50: incubated two hours at 37° C., n=3; for P50 increase: versus P50 control, two hours at 37° C.
Experimental: as §1
Human blood was freshly withdrawn in heparinized tubes. The pH of the compound solutions was adjusted to approximately 7.0 and whole blood volumes at 1:1 ratios where incubated individually for two hours at 37° C. with the above compounds. Following, incubation, blood cells were washed 3 times with Bis-Tris-buffer. The measurement of oxygen dissociation curves was made in a Hemox-Analyzer instrument (TCS Scientific Corp.) A summary of P50 values for whole blood induced by the compounds is presented in Table 1.

T1 sequence (P68871 2-147 limits assumed): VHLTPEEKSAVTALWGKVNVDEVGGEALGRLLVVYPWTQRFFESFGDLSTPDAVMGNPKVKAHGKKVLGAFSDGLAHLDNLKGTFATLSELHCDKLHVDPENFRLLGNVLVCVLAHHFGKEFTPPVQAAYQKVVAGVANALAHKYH
T1 sequence (P69905 2-142 partner limits assumed): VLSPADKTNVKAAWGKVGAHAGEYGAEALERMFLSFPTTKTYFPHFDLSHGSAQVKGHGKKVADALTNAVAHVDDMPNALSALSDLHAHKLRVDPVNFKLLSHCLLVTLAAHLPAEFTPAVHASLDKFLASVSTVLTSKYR

Molecule | P50 (free hemoglobin (Hb)) | P50 increase (free hemoglobin (Hb)) | P50 (human whole blood (WB)) | P50 increase (human whole blood (WB))
O[C@H]1[C@H](O)[C@@H](O)[C@H](O)[C@@H](O)[C@H]1O [myo-Inositol (Compound 5, Scheme 6)] | 27.25 ± 0.14 Torr | 148% | 35.53 ± 1.43 Torr | 23%
Hexasodium scyllo-inositol 1,2:3,4:5,6-trispyrophosphate [scyllo-ITPP (Compound 4, Scheme 5)] | 23.02 ± 1.83 Torr | 127% | 34.10 ± 1.81 Torr | 18%
O=P(O)(O)O[C@H]1[C@H](OP(=O)(O)O)[C@@H](OP(=O)(O)O)[C@H](OP(=O)(O)O)[C@@H](OP(=O)(O)O)[C@H]1OP(=O)(O)O [myo-IHP, myo-Inositol hexaphosphate, reference compound] | 48.37 ± 3.71 Torr | 282% | – | –
O[C@H]1[C@H](O)[C@@H](O)[C@H](O)[C@@H](O)[C@H]1O [myo-Inositol (Compound 7, Scheme 6)] | 27.43 ± 1.07 Torr | 158% | – | –
